Experimental data from US12258554B2 (priority 2014, dated 2025).
Values joined by “and” are separate entries in the source; they are usually repeats but may differ in a detail not shown here. Identical values can stand only once. Like-named read-outs stand apart in the source and are kept apart here. Where a SMILES comes first, the peptide text is derived from it. Bridges are numbered along the chain shown (N, C = ends). [ ]: non-standard residue; d: D form. The star is where a group is joined. ξ: configuration not given here. Pentadecanoyl(3ξ-OH,15-Gua) = N=C(N)NCCCCCCCCCCCCC(O)CC(=O)*; d(aThr) = C[C@@H](O)[C@@H](N)C(=O)O; Thr(3ξ) = CC(O)[C@H](N)C(=O)O; ξY = NC(Cc1ccc(O)cc1)C(=O)O

Legend:
[1] = tested on: Phytophthora infestans (PHYTIN); assay type: in vivo; settings: for % efficacy (% fungal attack): late blight on tomato, protective application, metabolite conc. 7.2 ppm, visually assessed 5-7 days after inoculation; for % efficacy PHYTIN: in planta, 360 ppm, assessed 5-7 days after inoculation
[2] = tested on: Fusarium graminearum (GIBBZE); assay type: in vivo; settings: for % efficacy (% fungal attack): head blight on wheat, protective application, metabolite conc. 360 ppm, visually assessed 5-7 days after inoculation
[3] = tested on: Alternaria solani (ALTESO); assay: Fungal growth assay in 96 well plates; assay type: cell-based; settings: OD 600 nm, YBG, about 18° C.
Experimental: (§1) Fungal growth assays were performed in 96 well plates with spore suspension of the pathogen Botrytis cinerea (BOTRCI, in YBA [10 g Bacto peptone (Becton Dickinson 211677), 10 g yeast extract (Becton Dickinson 212750), 20 g sodium acetate, ad 1000 mL aqua bidest] or Alternaria solani (ALTESO, in YBG [10 g Bacto peptone (Becton Dickinson 211677), 10 g yeast extract (Becton Dickinson 212750), 20 g glycerine 99%, ad 1000 mL aqua bidest]). Fusaricidins and compounds 1A and 1B were dissolved and diluted in DMSO. Different concentrations ranging from 60 μM down to 0.3 μM were pipetted into the microtiter plate. An aqueous suspension of 10^4 spores/ml was added. The plates were incubated at about 18° C. Fungal growth was determined by measuring the optical density at 600 nm in a microplate reader 3 and 7 days after the inoculation of the spores and compared to the untreated control (DMSO). IC50 (concentration [μM] of the respective metabolite required for 50% inhibition of fungal growth) has been determined thereafter.

[4] = tested on: Botrytis cinerea (BOTRCI); assay: Fungal growth assay in 96 well plates; assay type: cell-based; settings: evaluation 7 d after inoculation, OD 600 nm, YBA, about 18° C.; read-out: Fungal growth inhibition (IC50) BOTRCI (7d)
Experimental: as §1

[5] = tested on: Botrytis cinerea (BOTRCI); settings: in vivo
[6] = tested on: Alternaria solani (ALTESO); settings: in vivo
[7] = tested on: Phakopsora pachyrhizi (PHAKPA); settings: in vivo
[8] = tested on: important fungal diseases on crop plants; assay type: in vivo; settings: metabolites; for controlling important fungal diseases on crop plants: dose levels as low as 7.2 ppm; for antifungal efficacy compared with Fusaricidin A, B and D: glasshouse trials
[9] = tested on: Septoria tritici (SEPTTR); assay: Glasshouse test, speckled leaf blotch on wheat, protective application; assay type: in vivo; settings: metabolite conc. 360 ppm
Experimental: Commercially available young wheat seedlings were used for the described greenhouse trial. 2 replications (pots with 1 plant each) were used per treatment. Plants were grown in commercially available substrate (Universal, Floragard) at approx. 22° C. in the greenhouse. The humidity was controlled using a special device (˜90% humidity). The plants were sprayed to runoff with crude culture broth of 2-6 days old cultures of Paenibacillus spp. (depending on the setup) using a spray cabinet. Culture conditions are described in Example 3. One day after application the treated plants were inoculated with a suspension of spores of Septoria tritici (SEPTTR). After inoculation, the trial plants were immediately transferred to a humid chamber. The extent of fungal attack on the leaves was visually assessed 21-28 days after inoculation.

[10] = tested on: clinically relevant fungi and gram-positive bacteria such a Staphylococcus aureus; settings: ChemMedChem 7, 871-882, 2012; cited from earlier work
[11] = evaluation 3 d after inoculation, read-out: Fungal growth inhibition (IC50) ALTESO (3 d)
[12] = evaluation 7 d after inoculation, read-out: Fungal growth inhibition (IC50) ALTESO (7 d)

| Compound | % efficacy (% fungal attack) [1] [%] | % efficacy (% fungal attack) [2] [%] | IC50 [3, 11] [nM] | IC50 [3, 12] [nM] | IC50 [4] [nM] | % efficacy PHYTIN [1] [%] | % efficacy BOTRCI [5] | % efficacy ALTESO [6] [%] | % efficacy PHAKPA [7] [%] | % efficacy GIBBZE ([2]; in planta, 360 ppm, assessed 5-7 days after inoculation) [%] | controlling important fungal diseases on crop plants [8] | antifungal efficacy compared with Fusaricidin A, B and D [8] | % efficacy (% fungal attack) [9] [%] | MIC value range [10] [µg/mL] |
| --- | --- | --- | --- | --- | --- | --- | --- | --- | --- | --- | --- | --- | --- | --- |
| CC(C)[C@@H]1NC(=O)[C@@H](C(C)C)NC(=O)[C@@H](NC(=O)CC(O)CCCCCCCCCCCCN=C(N)N)C(C)OC(=O)[C@@H](C)NC(=O)[C@@H](CCC(N)=O)NC(=O)[C@@H]([C@H](C)O)NC1=O (stereo in doubt) [Compound 5B, fusaricidin B] | 4 | 0 | 1100 | 600 | 600 |  |  |  |  |  |  |  |  |  |
| CCC(C)C1NC(=O)C(NC(=O)CC(O)CCCCCCCCCCCCNC(=N)N)C(C)OC(=O)C(C)NC(=O)C(CC(N)=O)NC(=O)C(C(C)O)NC(=O)C(Cc2ccc(O)cc2)NC1=O (stereo not shown) [Compound 1A] ({Pentadecanoyl(3ξ-OH,15-Gua)}-TIYTNA; ester 1-C; configuration not given here) |  | 49 | 600 | 500 | 300 | 100 | 99% and 97% | 74 | 95 | 49 | effective | higher antifungal efficacy than Fusaricidin A, B and D |  |  |
| CCC(C)C1NC(=O)C(NC(=O)CC(O)CCCCCCCCCCCCNC(=N)N)C(C)OC(=O)C(C)NC(=O)C(CCC(N)=O)NC(=O)C(C(C)O)NC(=O)C(Cc2ccc(O)cc2)NC1=O (stereo not shown) [Compound 1B] ({Pentadecanoyl(3ξ-OH,15-Gua)}-TIYTQA; ester 1-C; configuration not given here) | 44 |  | 600 | 400 | 400 | 100 | 97% and 100% |  | 97 |  | effective | higher antifungal efficacy than Fusaricidin A, B and D | 80 |  |
| CC1OC(=O)[C@@H](C)NC(=O)[C@@H](CCC(N)=O)NC(=O)[C@@H]([C@H](C)O)NC(=O)C(Cc2ccc(O)cc2)NC(=O)[C@@H](C(C)C)NC(=O)[C@H]1NC(=O)CC(O)CCCCCCCCCCCCN=C(N)N (stereo partly shown) [Compound 2B, fusaricidin D] ({Pentadecanoyl(3ξ-OH,15-Gua)}-[Thr(3ξ)][dV][ξY][dT][dQ][dA]; ester 1-C) | 0 |  | 1100 | 600 | 500 |  |  |  |  |  |  |  | 50 |  |
| CC(C)[C@@H]1NC(=O)[C@@H](C(C)C)NC(=O)[C@@H](NC(=O)CC(O)CCCCCCCCCCCCN=C(N)N)[C@@H](C)OC(=O)[C@@H](C)NC(=O)[C@@H](CC(N)=O)NC(=O)[C@@H]([C@@H](C)O)NC1=O (stereo partly shown) [Compound 5A, fusaricidin A] ({Pentadecanoyl(3ξ-OH,15-Gua)}-T[dV]V[d(aThr)][dN][dA]; ester 1-C) | 15 | 31 | 1300 | 700 | 500 |  |  |  |  |  |  |  |  | 0.78 to 3.12 |
